Source: ChEMBL document CHEMBL3044807, “Synthesis and biological evaluation of new ozonides with improved plant growth regulatory activity” (2009)

system: Cucumis sativus; assay: Phytotoxic activity against Cucumis sativus (cucumber) assessed as aerial part growth inhibition at 5.0 x 10^-4 mol/l measured 15 days after seed sowing under greenhouse trials (reference value: 0.0%); type: functional; conditions: 360 h

Compound | inhibition at 500 µM [%]
CC[C@@]12C=C[C@H](O1)[C@H]1CCCC[C@H]2C1=O | 69.2
CC1=C[C@@H]2O[C@]1(C)[C@H]1CCCC[C@H]2C1=O | 65.4
C[C@@]12C=C[C@](C)(O1)[C@H]1CCCC[C@H]2C1=O | 15.6

system: Cucumis sativus; assay: Phytotoxic activity against Cucumis sativus (cucumber) assessed as weight of aerial parts at 5.0 x 10^-4 mol/l measured 15 days after seed sowing under greenhouse trials (reference value: 47.0 mg); type: functional; conditions: not given

Compound | Activity [mg]
CC[C@@]12C=C[C@H](O1)[C@H]1CCCC[C@H]2C1=O | 14.5
CC1=C[C@@H]2O[C@]1(C)[C@H]1CCCC[C@H]2C1=O | 16.3
C[C@@]12C=C[C@](C)(O1)[C@H]1CCCC[C@H]2C1=O | 39.7

system: Sorghum bicolor; assay: Phytotoxic activity against Sorghum bicolor seedlings assessed as inhibition of radicle growth at 5x10'-4 mol/l at 28 +/-1 degC after 48 hr by acid-washed sand based radicle elongation assay (reference value: 0.0%); type: functional; conditions: not given

Compound | inhibition at 500 µM [%]
CC[C@@]12C=C[C@H](O1)[C@H]1CCCC[C@H]2C1=O | 64.2
CC1=C[C@@H]2O[C@]1(C)[C@H]1CCCC[C@H]2C1=O | 82.5
C[C@@]12C=C[C@](C)(O1)[C@H]1CCCC[C@H]2C1=O | 83.4

system: Sorghum bicolor; assay: Phytotoxic activity against Sorghum bicolor assessed as weight of aerial parts at 5.0 x 10^-4 mol/l measured 15 days after seed sowing under greenhouse trials (reference value: 19.0 mg); type: functional; conditions: not given

Compound | Activity [mg]
CC[C@@]12C=C[C@H](O1)[C@H]1CCCC[C@H]2C1=O | 9.7
CC1=C[C@@H]2O[C@]1(C)[C@H]1CCCC[C@H]2C1=O | 10
C[C@@]12C=C[C@](C)(O1)[C@H]1CCCC[C@H]2C1=O | 12.7

system: Sorghum bicolor; assay: Phytotoxic activity against Sorghum bicolor assessed as weight of roots at 5.0 x 10^-4 mol/l measured 15 days after seed sowing under greenhouse trials (reference value: 14.0 mg); type: functional; conditions: not given

Compound | Activity [mg]
CC[C@@]12C=C[C@H](O1)[C@H]1CCCC[C@H]2C1=O | 7.7
CC1=C[C@@H]2O[C@]1(C)[C@H]1CCCC[C@H]2C1=O | 7.1
C[C@@]12C=C[C@](C)(O1)[C@H]1CCCC[C@H]2C1=O | 11.9

system: Cucumis sativus; assay: Phytotoxic activity against Cucumis sativus (cucumber) seedlings assessed as inhibition of radicle growth at 5x10'-4 mol/l at 28 +/-1 degC after 48 hr by acid-washed sand based radicle elongation assay (reference value: 0.0%); type: functional; conditions: not given

Compound | inhibition at 500 µM [%]
CC[C@@]12C=C[C@H](O1)[C@H]1CCCC[C@H]2C1=O | 73.2
CC1=C[C@@H]2O[C@]1(C)[C@H]1CCCC[C@H]2C1=O | 82.1
C[C@@]12C=C[C@](C)(O1)[C@H]1CCCC[C@H]2C1=O | 70.7

system: Cucumis sativus; assay: Phytotoxic activity against Cucumis sativus (cucumber) seedlings assessed as germination at 5x10'-4 mol/l at 28 +/-1 degC after 48 hr by acid-washed sand based radicle elongation assay (reference value: 100%); type: functional; conditions: not given

Compound | germination % at 500 µM [%]
CC[C@@]12C=C[C@H](O1)[C@H]1CCCC[C@H]2C1=O | 100
CC1=C[C@@H]2O[C@]1(C)[C@H]1CCCC[C@H]2C1=O | 96
C[C@@]12C=C[C@](C)(O1)[C@H]1CCCC[C@H]2C1=O | 82

system: Cucumis sativus; assay: Phytotoxic activity against Cucumis sativus (cucumber) seedlings assessed as radicle length at 5x10'-4 mol/l at 28 +/-1 degC after 48 hr by acid-washed sand based radicle elongation assay (reference value: 4.8 cm); type: functional; conditions: not given

Compound | Activity [cm]
CC[C@@]12C=C[C@H](O1)[C@H]1CCCC[C@H]2C1=O | 1.3
CC1=C[C@@H]2O[C@]1(C)[C@H]1CCCC[C@H]2C1=O | 0.9
C[C@@]12C=C[C@](C)(O1)[C@H]1CCCC[C@H]2C1=O | 1.4

system: Sorghum bicolor; assay: Phytotoxic activity against Sorghum bicolor assessed as root growth inhibition at 5.0 x 10^-4 mol/l measured 15 days after seed sowing under greenhouse trials (reference value: 0.0%); type: functional; conditions: 360 h

Compound | inhibition at 500 µM [%]
CC[C@@]12C=C[C@H](O1)[C@H]1CCCC[C@H]2C1=O | 49
CC1=C[C@@H]2O[C@]1(C)[C@H]1CCCC[C@H]2C1=O | 49.6
C[C@@]12C=C[C@](C)(O1)[C@H]1CCCC[C@H]2C1=O | 14.8

system: Sorghum bicolor; assay: Phytotoxic activity against Sorghum bicolor seedlings assessed as radicle length at 5x10'-4 mol/l at 28 +/-1 degC after 48 hr by acid-washed sand based radicle elongation assay (reference value: 5.1 cm); type: functional; conditions: not given

Compound | Activity [cm]
CC[C@@]12C=C[C@H](O1)[C@H]1CCCC[C@H]2C1=O | 1.8
CC1=C[C@@H]2O[C@]1(C)[C@H]1CCCC[C@H]2C1=O | 0.9
C[C@@]12C=C[C@](C)(O1)[C@H]1CCCC[C@H]2C1=O | 0.9

system: Cucumis sativus; assay: Phytotoxic activity against Cucumis sativus (cucumber) assessed as weight of roots at 5.0 x 10^-4 mol/l measured 15 days after seed sowing under greenhouse trials (reference value: 31.0 mg); type: functional; conditions: not given

Compound | Activity [mg]
CC[C@@]12C=C[C@H](O1)[C@H]1CCCC[C@H]2C1=O | 15.8
CC1=C[C@@H]2O[C@]1(C)[C@H]1CCCC[C@H]2C1=O | 11.7
C[C@@]12C=C[C@](C)(O1)[C@H]1CCCC[C@H]2C1=O | 10.5

system: Sorghum bicolor; assay: Phytotoxic activity against Sorghum bicolor seedlings assessed as germination at 5x10'-4 mol/l at 28 +/-1 degC after 48 hr by acid-washed sand based radicle elongation assay (reference value: 100%); type: functional; conditions: not given

Compound | germination % at 500 µM [%]
CC[C@@]12C=C[C@H](O1)[C@H]1CCCC[C@H]2C1=O | 100
CC1=C[C@@H]2O[C@]1(C)[C@H]1CCCC[C@H]2C1=O | 79
C[C@@]12C=C[C@](C)(O1)[C@H]1CCCC[C@H]2C1=O | 100

system: Cucumis sativus; assay: Phytotoxic activity against Cucumis sativus (cucumber) assessed as root growth inhibition at 5.0 x 10^-4 mol/l measured 15 days after seed sowing under greenhouse trials (reference value: 0.0%); type: functional; conditions: 360 h

Compound | inhibition at 500 µM [%]
CC[C@@]12C=C[C@H](O1)[C@H]1CCCC[C@H]2C1=O | 49.2
CC1=C[C@@H]2O[C@]1(C)[C@H]1CCCC[C@H]2C1=O | 62.1
C[C@@]12C=C[C@](C)(O1)[C@H]1CCCC[C@H]2C1=O | 66.2

system: Sorghum bicolor; assay: Phytotoxic activity against Sorghum bicolor assessed as aerial part growth inhibition at 5.0 x 10^-4 mol/l measured 15 days after seed sowing under greenhouse trials (reference value: 0.0%); type: functional; conditions: 360 h

Compound | inhibition at 500 µM [%]
CC[C@@]12C=C[C@H](O1)[C@H]1CCCC[C@H]2C1=O | 48.8
CC1=C[C@@H]2O[C@]1(C)[C@H]1CCCC[C@H]2C1=O | 47.4
C[C@@]12C=C[C@](C)(O1)[C@H]1CCCC[C@H]2C1=O | 32.9
